Assay results published in patent publication US5312749A, “Industrial alkaline protease from shipworm bacterium” (The United States of America as represented by the …, priority 1992, dated 1994).
Where a name gives a salt, the structure may show the parent alone. Read-outs that look alike come from different tables or passages of the source.

Key:
[1] = tested on: alkaline protease from shipworm bacterium; assay: Inhibition of alkaline protease: preincubation with inhibitor, then azocasein assay; assay type: biochemical, bacterial symbiont of the shipworm Psiloteredo healdi; details: for Activity (%): assay 42° C., pH 9.0, 0.2M NaCl
Protocol: The protease purification was monitored by assaying for proteolytic activity and protein concentration after each step. Proteolytic activity was determined in duplicate assays employing azocasein for the substrate, as described by Cotta et al. [Applied Environmental Microbiology, vol. 52, 51-58 (1986)]. Units represent μg of azocasein digested per hour. Protein concentrations were determined by the method of Bradford [Analytical Biochemistry, […] (1976)] with bovine serum albumin as a standard.
Several compounds known to inhibit various proteases were examined for their effect on the activity of the purified enzyme from Example 2 (Table II). The protease was incubated prior to assay for 1 hr at 25° C. All assays were measured at 42° C. and pH 9.0 in 0.2M NaCl buffered with 100 mM bis Tris propane.

[2] = tested on: alkaline protease from shipworm bacterium; assay: as above; assay type: biochemical, bacterial symbiont of the shipworm Psiloteredo healdi; details: inhibitor 0.1%; preincubation 1 hr at 42° C.; assay 42° C., pH 9.0, 0.2M NaCl
[3] = inhibitor 0.1 mM, preincubated 1 hr at 25° C., 100% = 154 units/ml
[4] = inhibitor 10 mM, preincubated 1 hr at 25° C., 100% = 154 units/ml
[5] = inhibitor 1 mM, preincubated 1 hr at 25° C., 100% = 154 units/ml

Structure (SMILES)	Activity (%) [1, 3]	Activity (%) [1, 4]	effect on the activity of the protease (in words) [1]	Activity (%) [1, 5]	further results
[Cl][Cu][Cl] [CuCl2]	97%	94%	–	–	–
O=C(O)CN(CCN(CC(=O)O)CC(=O)O)CC(=O)O [EDTA (disodium salt), EDTA]	–	102%	little effect	–	–
[Cl][Hg][Cl] [HgCl2]	66%	8%	–	–	–
NC(=O)CI [Iodoacetamide]	102%	100%	little effect	102%	–
Cc1ccc2ccc3ccc(C)nc3c2n1 [Neocuproine HCl]	–	99%	little effect	–	–
O=S(=O)(F)Cc1ccccc1 [Phenylmethanesulphonyl fluoride]	93%	102%	does not inhibit activity	98%	–
O.O.O.O.[Na+].[O-]B1OO1 [Sodium perborate tetrahydrate]	–	–	–	–	Activity (%) ([1]; inhibitor 0.1%, preincubation 1 hr at 25° C.): 119%; effect on the activity of the protease (in words) ([1]; listed as perborate): protease activity stimulation; effect on the activity of the protease (in words) ([1]; listed as sodium perborate): little effect; effect on the activity of the protease (in words) ([1]; listed as sodium perborate tetrahydrate): apparent enhancement of protease activity; Activity (%) [2]: 117%
Cc1ccc(S(=O)(=O)N[C@@H](CCCCN)C(=O)CCl)cc1 [TLCK, tosyl-1-lysine chloromethyl ketone]	47%	7%	significantly reduces the activity at low concentrations and abolishes it at high concentrations	20%	–
Cc1ccc(S(=O)(=O)N[C@@H](Cc2ccccc2)C(=O)CCl)cc1 [TPCK, tosylamide phenylethyl chloromethyl ketone]	94%	100%	unaffected	99%	–
NCCCCCC(=O)O [ε-Amino-n-caproic acid]	–	–	unaffected	–	Activity (%) ([1]; inhibitor 100 μg, preincubated 1 hr at 25° C.): 101%; Activity (%) ([1]; inhibitor 500 μg, preincubated 1 hr at 25° C.): 99%
